Results published in the NIST ThermoML archive (doi:10.1016/j.fluid.2004.11.025).
Numbers after ± are expanded uncertainties.

Experiments:
[1] = Liquid; for mass density: 293.15 K, 101.33 kPa; for Normal boiling temperature: Fischer boiling point apparatus
[2] = refractive index (Na D-line) (dimensionless); details: 298.15 K; 101.33 kPa; Liquid; Standard Abbe refractometry

mass density [1] [kg/m3] | Normal boiling temperature [1] [°C] | refractive index [2] | Structure (SMILES)
1049.42 ± 0.29 | 118.1 ± 0.2 | 1.3713 ± 0.0007 | CC(=O)O [acetic acid]
 |  | 1.3324 ± 0.0007 | O [water]
1061.9 ± 0.61 | 225.1 ± 0.2 | 1.4215 ± 0.0012 | COC(=O)CCCCC(=O)OC [dimethyl 1,6-hexanedioate]
